Measured values from ChEMBL document CHEMBL3045561, “Feeding deterrents from Zanthoxylum schinifolium against two stored-product insects” (J Agric Food Chem, 2009).

What was measured:
Assay type in all cases: functional
Tribolium castaneum [1] = assay: Feeding deterrent activity against adult Tribolium castaneum (red flour beetle) on compound pre-treated wheat flour disks assessed as mortality at 30 ppm after 3 days by flour disk bioassay (reference value: 0%)
Tribolium castaneum [2] = assay: Feeding deterrent activity against adult Tribolium castaneum (red flour beetle) on compound pre-treated wheat flour disks assessed as food utilization rate at 300 ppm after 3 days by flour disk bioassay (reference value: 20.59 +/-1.47%)
Tribolium castaneum [3] = assay: Feeding deterrent activity against adult Tribolium castaneum (red flour beetle) on compound pre-treated wheat flour disks assessed as relative food consumption rate at 30 ppm after 3 days by flour disk bioassay (reference value: 143.22 +/-4.32 ug/mg/day)
Sitophilus zeamais [4] = assay: Feeding deterrent activity against adult Sitophilus zeamais on compound pretreated wheat flour disks at 300 ppm after 3 days by flour disk bioassay
Sitophilus zeamais [5] = assay: Feeding deterrent activity against adult Sitophilus zeamais on compound pretreated wheat flour disks assessed as food utilization rate at 100 ppm after 3 days by flour disk bioassay (reference value: 11.09 +/-1.12%)
Tribolium castaneum [6] = assay: Feeding deterrent activity against adult Tribolium castaneum (red flour beetle) on compound pre-treated wheat flour disks assessed as relative growth rate at 30 ppm after 3 days by flour disk bioassay (reference value: 29.49 +/-1.35 ug/mg/day)
Sitophilus zeamais [7] = assay: Feeding deterrent activity against adult Sitophilus zeamais on compound pretreated wheat flour disks assessed as relative growth rate at 100 ppm after 3 days by flour disk bioassay (reference value: 13.61 +/-1.13 ug/mg/day)
Tribolium castaneum [8] = assay: Feeding deterrent activity against adult Tribolium castaneum (red flour beetle) on compound pre-treated wheat flour disks assessed as relative food consumption rate at 3 ppm after 3 days by flour disk bioassay (reference value: 143.22 +/-4.32 ug/mg/day)
Sitophilus zeamais [9] = assay: Feeding deterrent activity against adult Sitophilus zeamais on compound pretreated wheat flour disks assessed as relative food consumption rate at 1000 ppm after 3 days by flour disk bioassay (reference value: 122.72 +/-4.32 ug/mg/day)
Sitophilus zeamais [10] = assay: Feeding deterrent activity against adult Sitophilus zeamais on compound pretreated wheat flour disks at 1000 ppm after 3 days by flour disk bioassay
Tribolium castaneum [11] = assay: Feeding deterrent activity against adult Tribolium castaneum (red flour beetle) on compound pre-treated wheat flour disks at 1000 ppm after 3 days by flour disk bioassay
Sitophilus zeamais [12] = assay: Feeding deterrent activity against adult Sitophilus zeamais on compound pretreated wheat flour disks assessed as relative food consumption rate at 100 ppm after 3 days by flour disk bioassay (reference value: 122.72 +/-4.32 ug/mg/day)
Sitophilus zeamais [13] = assay: Feeding deterrent activity against adult Sitophilus zeamais on compound pretreated wheat flour disks assessed as mortality at 300 ppm after 3 days by flour disk bioassay (reference value: 0%)
Sitophilus zeamais [14] = assay: Feeding deterrent activity against adult Sitophilus zeamais on compound pretreated wheat flour disks assessed as mortality at 10 ppm after 3 days by flour disk bioassay (reference value: 0%)
Sitophilus zeamais [15] = assay: Feeding deterrent activity against adult Sitophilus zeamais on compound pretreated wheat flour disks assessed as food utilization rate at 10 ppm after 3 days by flour disk bioassay (reference value: 11.09 +/-1.12%)
Tribolium castaneum [16] = assay: Feeding deterrent activity against adult Tribolium castaneum (red flour beetle) on compound pre-treated wheat flour disks assessed as food utilization rate at 1000 ppm after 3 days by flour disk bioassay (reference value: 20.59 +/-1.47%)
Tribolium castaneum [17] = assay: Feeding deterrent activity against adult Tribolium castaneum (red flour beetle) on compound pre-treated wheat flour disks assessed as relative food consumption rate at 300 ppm after 3 days by flour disk bioassay (reference value: 143.22 +/-4.32 ug/mg/day)
Tribolium castaneum [18] = assay: Feeding deterrent activity against adult Tribolium castaneum (red flour beetle) on compound pre-treated wheat flour disks assessed as relative growth rate at 300 ppm after 3 days by flour disk bioassay (reference value: 29.49 +/-1.35 ug/mg/day)
Tribolium castaneum [19] = assay: Feeding deterrent activity against adult Tribolium castaneum (red flour beetle) on compound pre-treated wheat flour disks assessed as food utilization rate at 30 ppm after 3 days by flour disk bioassay (reference value: 20.59 +/-1.47%)
Sitophilus zeamais [20] = assay: Feeding deterrent activity against adult Sitophilus zeamais on compound pretreated wheat flour disks assessed as mortality at 30 ppm after 3 days by flour disk bioassay (reference value: 0%)
Sitophilus zeamais [21] = assay: Feeding deterrent activity against adult Sitophilus zeamais on compound pretreated wheat flour disks at 10 ppm after 3 days by flour disk bioassay
Tribolium castaneum [22] = assay: Feeding deterrent activity against adult Tribolium castaneum (red flour beetle) on compound pre-treated wheat flour disks at 10 ppm after 3 days by flour disk bioassay
Tribolium castaneum [23] = assay: Feeding deterrent activity against adult Tribolium castaneum (red flour beetle) on compound pre-treated wheat flour disks assessed as relative food consumption rate at 100 ppm after 3 days by flour disk bioassay (reference value: 143.22 +/-4.32 ug/mg/day)
Sitophilus zeamais [24] = assay: Feeding deterrent activity against adult Sitophilus zeamais on compound pretreated wheat flour disks assessed as mortality at 3 ppm after 3 days by flour disk bioassay (reference value: 0%)
Sitophilus zeamais [25] = assay: Feeding deterrent activity against adult Sitophilus zeamais on compound pretreated wheat flour disks assessed as mortality at 100 ppm after 3 days by flour disk bioassay (reference value: 0%)
Sitophilus zeamais [26] = assay: Feeding deterrent activity against adult Sitophilus zeamais on compound pretreated wheat flour disks assessed as relative food consumption rate at 300 ppm after 3 days by flour disk bioassay (reference value: 122.72 +/-4.32 ug/mg/day)
Sitophilus zeamais [27] = assay: Feeding deterrent activity against adult Sitophilus zeamais on compound pretreated wheat flour disks assessed as relative growth rate at 10 ppm after 3 days by flour disk bioassay (reference value: 13.61 +/-1.13 ug/mg/day)

CCCCCCCc1cc(=O)c2ccccc2n1C [SCHINIFOLINE]
mortality at 30 ppm (Tribolium castaneum [1]): 0%
ECI (Tribolium castaneum [2]): 7.53%
Activity (Tribolium castaneum [3]): 79.64 µg/mg/day
FDI (Sitophilus zeamais [4]): 72.35%
ECI (Sitophilus zeamais [5]): 7.54%
Activity (Tribolium castaneum [6]): 13.13 µg/mg/day
Activity (Sitophilus zeamais [7]): 3.79 µg/mg/day
Activity (Tribolium castaneum [8]): 139.51 µg/mg/day
Activity (Sitophilus zeamais [9]): 10.51 µg/mg/day
FDI (Sitophilus zeamais [10]): 92.15%
FDI (Tribolium castaneum [11]): 98.34%
Activity (Sitophilus zeamais [12]): 50.29 µg/mg/day
mortality at 300 ppm (Sitophilus zeamais [13]): 6%
mortality at 10 ppm (Sitophilus zeamais [14]): 0%
ECI (Sitophilus zeamais [15]): 10.73%
ECI (Tribolium castaneum [16]): 3.29%
Activity (Tribolium castaneum [17]): 21.29 µg/mg/day
Activity (Tribolium castaneum [18]): 1.6 µg/mg/day
ECI (Tribolium castaneum [19]): 16.5%
mortality at 30 ppm (Sitophilus zeamais [20]): 2%
FDI (Sitophilus zeamais [21]): 10.28%
FDI (Tribolium castaneum [22]): 18.64%
Activity (Tribolium castaneum [23]): 53.37 µg/mg/day
mortality at 3 ppm (Sitophilus zeamais [24]): 0%
mortality at 100 ppm (Sitophilus zeamais [25]): 0%
Activity (Sitophilus zeamais [26]): 34.51 µg/mg/day
Activity (Sitophilus zeamais [27]): 12.25 µg/mg/day

COc1ccc2c(OC)c3ccoc3nc2c1OC [SKIMMIANINE]
mortality at 30 ppm (Tribolium castaneum [1]): 0%
ECI (Tribolium castaneum [2]): 10.03%
Activity (Tribolium castaneum [3]): 101.27 µg/mg/day
FDI (Sitophilus zeamais [4]): 60.24%
ECI (Sitophilus zeamais [5]): 8.37%
Activity (Tribolium castaneum [6]): 15.31 µg/mg/day
Activity (Sitophilus zeamais [7]): 4.99 µg/mg/day
Activity (Tribolium castaneum [8]): 137.89 µg/mg/day
Activity (Sitophilus zeamais [9]): 18.31 µg/mg/day
FDI (Sitophilus zeamais [10]): 82.43%
FDI (Tribolium castaneum [11]): 89.56%
Activity (Sitophilus zeamais [12]): 59.65 µg/mg/day
mortality at 300 ppm (Sitophilus zeamais [13]): 4%
mortality at 10 ppm (Sitophilus zeamais [14]): 0%
ECI (Sitophilus zeamais [15]): 10.67%
ECI (Tribolium castaneum [16]): 7.81%
Activity (Tribolium castaneum [17]): 31.56 µg/mg/day
Activity (Tribolium castaneum [18]): 3.17 µg/mg/day
ECI (Tribolium castaneum [19]): 15.12%
mortality at 30 ppm (Sitophilus zeamais [20]): 0%
FDI (Sitophilus zeamais [21]): 10.21%
FDI (Tribolium castaneum [22]): 13.21%
Activity (Tribolium castaneum [23]): 61.88 µg/mg/day
mortality at 3 ppm (Sitophilus zeamais [24]): 0%
mortality at 100 ppm (Sitophilus zeamais [25]): 0%
Activity (Sitophilus zeamais [26]): 45.13 µg/mg/day
Activity (Sitophilus zeamais [27]): 12.03 µg/mg/day
